In the supplement of paper PMC10307832:

Compound: CN(c1ncccc1CNc1nc(Nc2ccc3c(c2)CC(=O)N3)ncc1C(F)(F)F)S(C)(=O)=O
Assay: relative viability (nuclei count vs DMSO), 5 days (fraction); higher = more cells survive
Summary of the method: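 Five library-drug doses spaced by √10 were pinned onto vehicle-anchored 1536-well plates of lung cancer cell lines that had been kept overnight at 37 °C. Cells went 5 days without medium change, then were fixed, permeabilised and Hoechst-stained together, imaged at 4× and counted by MetaXpress. Viability is the ratio of treated-well to vehicle-well nuclei, taken as a median over plates. Plates required control CV below 25% and at least one doubling.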

| Cell Line | relative viability (0.01 µM) | relative viability (0.03162 µM) | relative viability (0.1 µM) | relative viability (0.3162 µM) | relative viability (1 µM) |
| --- | --- | --- | --- | --- | --- |
| 201T | 1.02 | 0.951 | 0.911 | 0.949 | 0.961 |
| A549 | 1.04 | 1.17 | 0.922 | 0.95 | 0.95 |
| A-427 | 1.01 | 1.02 | 0.944 | 1.02 | 1.05 |
| ABC-1 | 0.947 | 0.818 | 0.926 | 0.899 | 0.879 |
| BEN | 1.05 | 1.06 | 1.03 | 1 | 1.02 |
| CAL-12T | 1.03 | 0.979 | 0.914 | 0.865 | 0.849 |
| COR-L23 | 1.01 | 1.1 | 0.981 | 1 | 0.8 |
| COR-L 105 | 1.04 | 0.955 | 0.945 | 0.874 | 0.92 |
| Calu-6 | 1.06 | 0.99 | 0.945 | 0.961 | 0.863 |
| ChaGo-K-1 | 0.963 | 1.08 | 0.948 | 0.96 | 1.02 |
| EBC-1 | 1.03 | 1.09 | 0.989 | 0.937 | 0.776 |
| EKVX | 0.971 | 1.08 | 0.945 | 0.883 | 0.88 |
| EMC-BAC-2 | 1.02 | 0.921 | 0.938 | 0.948 | 0.948 |
| EPLC-272H | 0.948 | 0.955 | 1.01 | 1.18 | 0.875 |
| H3255 | 0.974 | 1.07 | 0.95 | 0.906 | 0.972 |
| HARA | 0.943 | 0.757 | 0.937 | 0.874 | 0.787 |
| HCC-15 | 1.02 | 1.06 | 0.888 | 0.908 | 0.853 |
| HCC-44 | 0.956 | 0.941 | 0.917 | 1 | 0.984 |
| HCC-78 | 0.993 | 1.02 | 0.807 | 0.862 | 0.739 |
| HCC-366 | 0.997 | 1.04 | 1.02 | 1 | 1.02 |
| HCC-827 | 1.05 | 1.08 | 1.04 | 1.01 | 0.989 |
| HOP-62 | 1.07 | 1.08 | 0.99 | 0.979 | 0.98 |
| IA-LM | 0.899 | 1.11 | 0.912 | 0.823 | 0.805 |
| LC-2-ad | 1.01 | 1.01 | 0.966 | 0.883 | 0.967 |
| LCLC-97TM1 | 1 | 1.11 | 0.881 | 0.966 | 0.821 |
| LCLC-103H | 0.964 | 0.966 | 0.877 | 0.919 | 0.958 |
| LK-2 | 1.05 | 1.24 | 1.03 | 1.08 | 1.1 |

| Cell Line | relative viability (0.01 µM) | relative viability (0.03162 µM) | relative viability (0.1 µM) | relative viability (0.3162 µM) | relative viability (1 µM) |
| --- | --- | --- | --- | --- | --- |
| LOU-NH91 | 1.04 | 0.976 | 0.925 | 1.02 | 1.02 |
| LU99A | 0.964 | 1.06 | 1.04 | 1.17 | 1.01 |
| LXF-289 | 1.09 | 1.05 | 1.01 | 0.991 | 1.01 |
| NCI-H23 | 1.02 | 0.963 | 1.06 | 1.06 | 0.973 |
| NCI-H322M | 1 | 1.03 | 0.917 | 1.12 | 1.12 |
| NCI-H358 | 0.943 | 0.973 | 0.868 | 0.838 | 0.664 |
| NCI-H441 | 1.09 | 1.15 | 0.901 | 1.22 | 0.767 |
| NCI-H460 | 1 | 1.1 | 0.979 | 1 | 1.02 |
| NCI-H520 | 1.04 | 1.2 | 1.03 | 1.17 | 1.18 |
| NCI-H522 | 0.916 | 0.918 | 0.996 | 1 | 1.02 |
| NCI-H596 | 0.977 | 0.917 | 1.02 | 0.886 | 0.94 |
| NCI-H647 | 0.979 | 1.26 | 1.02 | 0.889 | 0.886 |
| NCI-H650 | 1.03 | 1 | 0.825 | 0.905 | 0.802 |
| NCI-H661 | 1.08 | 1.05 | 0.89 | 0.988 | 0.968 |
| NCI-H727 | 1 | 0.949 | 0.87 | 1.02 | 0.79 |
| NCI-H838 | 1.01 | 1.03 | 0.979 | 0.903 | 0.808 |
| NCI-H1299 | 1.02 | 1.04 | 1.04 | 0.986 | 1.01 |
| NCI-H1355 | 1.03 | 1.03 | 0.954 | 0.995 | 0.948 |
| NCI-H1395 | 0.94 | 0.977 | 0.812 | 1.01 | 0.988 |
| NCI-H1437 | 0.994 | 1.02 | 0.946 | 0.936 | 0.877 |
| NCI-H1563 | 1 | 0.962 | 0.947 | 0.808 | 0.938 |
| NCI-H1648 | 0.773 | 0.512 | 0.585 | 0.634 | 0.458 |
| NCI-H1650 | 0.924 | 0.961 | 0.947 | 0.904 | 0.886 |
| NCI-H1651 | 1.02 | 1.04 | 1 | 0.982 | 0.963 |
| NCI-H1666 | 1.01 | 0.953 | 0.965 | 0.818 | 0.719 |
| NCI-H1703 | 0.955 | 0.931 | 0.861 | 1.08 | 0.905 |
| NCI-H1734 | 0.985 | 1.04 | 0.947 | 1.02 | 0.953 |

| Cell Line | relative viability (0.01 µM) | relative viability (0.03162 µM) | relative viability (0.1 µM) | relative viability (0.3162 µM) | relative viability (1 µM) |
| --- | --- | --- | --- | --- | --- |
| NCI-H1755 | 1.05 | 1.05 | 0.956 | 0.922 | 0.938 |
| NCI-H1792 | 0.925 | 0.983 | 0.888 | 0.975 | 0.992 |
| NCI-H1793 | 0.877 | 1.07 | 0.928 | 0.857 | 0.786 |
| NCI-H1915 | 0.992 | 1 | 0.965 | 0.995 | 0.991 |
| NCI-H1944 | 0.993 | 0.983 | 1 | 1.02 | 1.06 |
| NCI-H1975 | 1.01 | 0.964 | 0.927 | 0.931 | 0.95 |
| NCI-H1993 | 0.855 | 0.99 | 0.855 | 0.925 | 0.821 |
| NCI-H2009 | 1.07 | 1.03 | 0.965 | 0.961 | 0.982 |
| NCI-H2023 | 1.06 | 1.19 | 0.787 | 0.797 | 0.892 |
| NCI-H2085 | 0.989 | 1.04 | 0.947 | 0.948 | 0.9 |
| NCI-H2087 | 1.01 | 1.21 | 0.974 | 1.05 | 1.06 |
| NCI-H2126 | 1 | 1 | 0.911 | 0.964 | 0.872 |
| NCI-H2170 | 0.962 | 1.13 | 1 | 0.965 | 0.981 |
| NCI-H2228 | 1.01 | 1.23 | 1.23 | 1.01 | 0.921 |
| NCI-H2342 | 0.884 | 1.02 | 0.791 | 0.962 | 0.854 |
| NCI-H2347 | 1.09 | 0.942 | 0.978 | 0.877 | 0.829 |
| NCI-H2405 | 1.06 | 0.935 | 0.931 | 0.8 | 0.82 |
| NCI-H3122 | 0.994 | 1.06 | 1.01 | 1.03 | 0.953 |
| PC-3 [JPC-3] | 0.998 | 1.05 | 0.981 | 1.03 | 0.943 |
| PC-14 | 1.09 | 1.09 | 1.05 | 0.982 | 0.963 |
| RERF-LC-KJ | 0.986 | 1.16 | 1.03 | 0.989 | 1.01 |
| SK-LU-1 | 1.04 | 1.15 | 0.993 | 1.02 | 0.908 |
| SK-MES-1 | 1.01 | 1.06 | 0.954 | 0.971 | 0.832 |
| SW 900 | 1.03 | 0.961 | 0.791 | 0.867 | 0.753 |
| SW 1573 | 0.996 | 1.12 | 0.974 | 0.922 | 0.944 |
| UMC-11 | 0.961 | 0.966 | 0.993 | 0.963 | 0.861 |
